For this data set the following is noted: DVS at 25° C., humidity program 50% r.h. to 95% r.h. and back to 50% r.h. The procedure:
Dynamic vapor sorption: DVS is performed at 25° C. with an SPS11-100n “Sorptions Prüfsystem” of Projekt Messtechnik, D-89077 Ulm (Germany). About 25 mg of sample is put into an aluminum sample pan. Humidity program: 50% relative humidity (r.h.) for 2 hours, 50% r.h. to 95% r.h. (humidity change rate 5% per hour), 95% r.h. for 5 hours, 95% r.h. to 50% r.h. (humidity change rate 5% per hour), 50% r.h. for 2 hours.

Structures are written as SMILES.

Take `Cc1nc(Nc2ncc(C(=O)Nc3c(C)cccc3Cl)s2)cc(N2CCN(CCO)CC2)n1.O=C1NS(=O)(=O)c2ccccc21` [Example 5, Dasatinib saccharinate (hydrate)]: the “hygroscopicity by DVS” value was “not hygroscopic”.

The record behind these values is US9556164B2, “Salts of Dasatinib in crystalline form” (BASF SE, priority 2013, dated 2017).
